Experimental data reported in ChEMBL document CHEMBL1131351, “Nonsteroidal progesterone receptor antagonists based on a conformationally-restricted subseries of 6-aryl-1,2-dihydro-2,2,4-trimethylquinolines” (Bioorg Med Chem Lett, 1998).

What was measured:
[1] = target: T1, Progesterone receptor (Homo sapiens, UniProt P06401); test: Binding affinity against human progesterone receptor-A (hPR-A)
T1 sequence (P06401 whole entry): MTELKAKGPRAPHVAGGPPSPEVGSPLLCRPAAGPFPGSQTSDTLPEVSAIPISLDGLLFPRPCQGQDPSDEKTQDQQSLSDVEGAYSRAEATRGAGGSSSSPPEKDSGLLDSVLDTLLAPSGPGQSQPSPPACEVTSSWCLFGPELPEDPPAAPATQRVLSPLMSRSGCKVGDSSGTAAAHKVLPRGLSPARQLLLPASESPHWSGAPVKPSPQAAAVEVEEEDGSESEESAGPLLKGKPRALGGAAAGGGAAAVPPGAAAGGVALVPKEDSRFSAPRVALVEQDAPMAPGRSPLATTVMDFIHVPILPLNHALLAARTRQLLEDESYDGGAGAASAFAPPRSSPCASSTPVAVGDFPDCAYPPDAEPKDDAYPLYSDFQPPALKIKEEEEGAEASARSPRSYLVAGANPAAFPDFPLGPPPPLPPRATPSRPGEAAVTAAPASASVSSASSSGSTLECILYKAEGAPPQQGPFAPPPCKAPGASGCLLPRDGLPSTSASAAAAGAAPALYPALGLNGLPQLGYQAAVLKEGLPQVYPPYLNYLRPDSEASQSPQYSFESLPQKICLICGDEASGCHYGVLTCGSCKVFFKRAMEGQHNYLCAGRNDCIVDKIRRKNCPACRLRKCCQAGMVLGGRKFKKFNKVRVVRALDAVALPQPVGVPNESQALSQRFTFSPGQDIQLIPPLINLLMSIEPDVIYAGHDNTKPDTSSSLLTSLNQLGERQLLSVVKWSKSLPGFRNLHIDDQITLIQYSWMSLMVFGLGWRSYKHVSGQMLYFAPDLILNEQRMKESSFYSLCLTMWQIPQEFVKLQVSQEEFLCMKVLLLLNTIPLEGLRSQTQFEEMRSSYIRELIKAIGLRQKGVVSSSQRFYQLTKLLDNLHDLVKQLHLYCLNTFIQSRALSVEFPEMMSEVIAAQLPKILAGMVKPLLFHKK

[2] = target: T1, Progesterone receptor; test: Antagonist activity against human progesterone receptor B (hPR-B) in co-transfected CV-1 cells; format: functional, cell-based
[3] = target: T1, Progesterone receptor; test: Agonistic activity against human progesterone receptor B (hPR-B) in co-transfected CV-1 cells; format: functional, cell-based

Ki [1] | IC50 [2] | EC50 [3] | SMILES
25.5 nM | 80 nM |  | CC1=CC(C)(C)Nc2cc3c(cc21)-c1c(F)cc(F)cc1C3O (configuration not stated)
77 nM | 1140 nM |  | CC1=CC(C)(C)Nc2ccc3c(oc4ccccc43)c21
3.1 nM | 146 nM |  | CC1=CC(C)(C)Nc2cc3c(cc21)-c1c(F)ccc(F)c1C3
> 10000 nM | 10000 nM |  | CC1=CC(C)(C)Nc2cc3c(cc21)-c1ccc(Br)cc1C3C (configuration not stated)
62.5 nM | 46 nM |  | CC1=CC(C)(C)Nc2cc3c(c(F)c21)-c1ccc(F)cc1C3OC(=O)C(F)(F)F (configuration not stated)
184 nM | 1850 nM |  | CC1=CC(C)(C)Nc2cc3oc4ccccc4c3cc21
449 nM | 99 nM |  | CC1=CC(C)(C)Nc2cc3c(cc21)-c1c(F)cccc1C3O (configuration not stated)
3.6 nM | 90 nM |  | CC1=CC(C)(C)Nc2cc3c(cc21)-c1ccc([N+](=O)[O-])cc1C3
29 nM | 248 nM |  | CC1=CC(C)(C)Nc2cc3c(cc21)-c1ccc(Cl)cc1C3
> 10000 nM | 10000 nM |  | CC1=CC(C)(C)Nc2cc3c(c(F)c21)-c1ccc(F)cc1C3(C)O (configuration not stated)
202 nM | 74 nM |  | CC1=CC(C)(C)Nc2cc3c(cc21)-c1cc(F)cc(F)c1C3O (configuration not stated)
97 nM | 3330 nM |  | CC1=CC(C)(C)Nc2ccc3c(c21)Cc1cc([N+](=O)[O-])c(F)cc1-3
14 nM | 220 nM |  | CC1=CC(C)(C)Nc2cc3c(cc21)-c1ccccc1C3
113 nM | 59 nM |  | CC1=CC(C)(C)Nc2cc3[nH]c4ccccc4c3cc21
57 nM | 1670 nM |  | CC1=CC(C)(C)Nc2ccc3c(c21)Cc1cc([N+](=O)[O-])ccc1-3
1.9 nM | 100 nM |  | CC1=CC(C)(C)Nc2cc3c(cc21)-c1cc(F)c([N+](=O)[O-])cc1C3
53.1 nM | 163 nM |  | CC1=CC(C)(C)Nc2cc3c(c(Cl)c21)-c1ccccc1C3O (configuration not stated)
20.9 nM | 5680 nM |  | CC1=CC(C)(C)Nc2cc(F)c3c(c21)Cc1cc(F)ccc1-3
1.5 nM |  | 650 nM | CC1=CC(C)(C)Nc2cc3c(c(F)c21)-c1ccc(F)cc1C3

Ki [1] | IC50 [2] | EC50 [3] | SMILES
200 nM | 2330 nM |  | CC1=CC(C)(C)Nc2ccc3c(c21)Cc1cc(Br)ccc1-3
24 nM | 434 nM |  | CC1=CC(C)(C)Nc2cc3c(cc21)-c1ccc(Br)cc1C3
29.1 nM | 158 nM |  | CC1=CC(C)(C)Nc2cc3c(cc21)-c1c(F)cccc1C3=O
> 10000 nM | 365 nM |  | CC1=CC(C)(C)Nc2cc3c(c(F)c21)-c1ccc(F)cc1C3=O
1860 nM | 3440 nM |  | CC1=CC(C)(C)Nc2cc3c(cc21)-c1ccc(Br)cc1C3O (configuration not stated)
169 nM | 284 nM |  | CCn1c2ccccc2c2ccc3c(c21)C(C)=CC(C)(C)N3
15.5 nM | 496 nM |  | CC1=CC(C)(C)Nc2ccc3c(c21)Cc1c(F)cccc1-3
12.4 nM | 10000 nM |  | CC1=CC(C)(C)Nc2cc3c(cc21)-c1cccc(CO)c1C3
13 nM | 549 nM |  | CC1=CC(C)(C)Nc2ccc3c(c21)Cc1ccccc1-3
3.5 nM |  |  | CC1=CC(C)(C)Nc2cc3c(cc21)-c1ccc(F)cc1C3
2580 nM | 10000 nM |  | CC1=CC(C)(C)Nc2cc(F)c3c(c21)C(O)c1cc(F)ccc1-3 (configuration not stated)
176 nM | 164 nM |  | CC(=O)c1ccc2c(c1)Cc1cc3c(cc1-2)C(C)=CC(C)(C)N3
483 nM | 609 nM |  | CC1=CC(C)(C)Nc2cc3c(cc21)-c1ccccc1C3O (configuration not stated)
101 nM | 122 nM |  | CC1=CC(C)(C)Nc2cc3c(cc21)-c1ccc(F)cc1C3O (configuration not stated)
> 10000 nM | 10000 nM |  | CC1=CC(C)(C)Nc2cc3c(cc21)-c1ccc(Br)cc1C3Cc1ccccc1 (configuration not stated)
2.3 nM | 1770 nM |  | CC1=CC(C)(C)Nc2cc3c(cc21)-c1cccc(F)c1C3
87 nM | 424 nM |  | CC1CC(C)(C)Nc2cc3c(cc21)-c1ccccc1C3 (configuration not stated)
> 1000 nM | 662 nM |  | CC1=CC(C)(C)Nc2ccc3c([nH]c4ccccc43)c21
3550 nM | 353 nM |  | CC1=CC(C)(C)Nc2cc3c(cc21)-c1ccccc1C3=O

SMILES | Ki [1] | IC50 [2] | EC50 [3]
CCCCn1c2ccccc2c2ccc3c(c21)C(C)=CC(C)(C)N3 | 77 nM | 416 nM | 
